Data: patent publication US20250302839A1 (D&D Biopharmaceuticals, Inc., priority 2024, published 2025)

How the values were obtained:
human donor cornea [1] = test: Penetration of riboflavin into human donor cornea, evaluated by fluorescence microscopy; type: in vitro ADME
human donor cornea [2] = test: Pre- and post-treatment evaluation of corneal integrity (epithelium, stroma, endothelium; specular microscopy); settings: 10 mg/ml glutaric anhydride in 0.3M sodium phosphate buffer (pH 8.5), 60 seconds
Method: The agent used in this example was glutaric anhydride (GA). Paired human donor corneas were evaluated prior to treatment and immediately after treatment for intact epithelium, stroma, and endothelium. Riboflavin fluorescence for the GA treatment and the non-GA treatment control were compared. The test human cornea sample was labeled 21-095656 OD, and the control human cornea sample was labeled 21-095656 OS.
One pair human corneas were recovered by in situ removal by a certified eyebank technician and placed in LIFE4° C. and stored in Bausch & Lomb 20 ml viewing chambers, and stored at 2-8° C. Corneas were shipped on wet ice overnight to the treatment facility. Upon arrival, the corneas were warmed for 2±2 hours at 35° C. and evaluated for corneal integrity. […] At the time of the study, corneas were warmed for 2±2 hours at 35° C., and evaluated for corneal integrity.
The control and treated cornea samples were placed in a petri dish with the epithelial side up in a laminar flow hood with enough Life4° C. corneal preservation medium to fill the endothelial side of the human cornea with medium. […] Each sample was analyzed before treatment (FIGS. 1A-1C).
A single examiner performed all measurements. Corneal endothelium was evaluated utilizing a Konan Eyebank KeratoAnalyzer. […] Number of cells analyzed. • 8. […]

| SMILES | disruption of corneal cell junctures permitting riboflavin diffusion (human donor cornea [1]; 10 mg/ml glutaric anhydride in 0.3M sodium phosphate buffer (pH 8.5), 1.0 ml for 60 seconds, continuous drops) | effect on corneal epithelium, stroma and endothelium post-treatment (human donor cornea [2]) | time until riboflavin fluorescence was exhibited (human donor cornea [1]; test cornea 21-095656 OD, after 10 mg/ml buffered glutaric anhydride solution for 60 seconds, riboflavin 1.46 mg/ml in PBS, 2 x 0.5 mL, intact epithelium) |
| --- | --- | --- | --- |
| O=C1CCCC(=O)O1 [glutaric anhydride] | disrupt cell junctures to permit diffusion of riboflavin through the epithelium and deep into the corneal stroma | did not adversely affect the corneal epithelium, stroma or endothelium |  |
| Cc1cc2nc3c(=O)[nH]c(=O)nc-3n(C[C@H](O)[C@H](O)[C@H](O)CO)c2cc1C [riboflavin, reference compound] |  |  | ≤ 2 min |
